Target: T1, FaPAO5
T1 construct: 105 kDa fusion protein
Test: isothermal titration calorimetry
Format: binding, Fragaria x ananassa
Conditions: pH 7.4, 30 °C, 200 mM NaCl, 20 mM Tris, 0.5 mM EDTA, 10 mM maltose; MBP fusion protein (10 µM in Methods, 20 µM in Results); ligand 100 µM
Excerpt: isothermal titration calorimetry on FaPAO5 | the binding of FaPAO5 to Spm and Spd followed a saturation kinetics curve

## NCCCNCCCCNCCCN [Spm]
  Kd: 210 nM

## NCCCCNCCCN [Spd]
  Kd: 290 nM

Source: PMC7189608, “FaPAO5 regulates Spm/Spd levels as a signaling during strawberry fruit ripening” (Plant Direct, 2020)
